According to patent publication US8741836B2, “Polypeptides” (Novo Nordisk A/S, priority 2011, dated 2014):
Starred links: 1 amine or outer side, 2 acyl side, 3 side chain; linkers in the order of their positions; H or OH if unused. Positions of bridges follow the written chain, without caps; N, C: chain ends. Residues, ends and D or L forms follow the SMILES beside them. *: point of attachment. C20 diacid = O=C(O)CCCCCCCCCCCCCCCCCCC(=O)*; γGlu = O=C(O)[C@H](CCC(=O)[*:2])N[*:1]

Assay: Assay (III) ThT fibrillation assay for physical stability
Assay type: physicochemical
Conditions: pH 4.0
Outline: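 Freshly prepared, pH-adjusted formulations with 1 μM ThT incubated at 37 °C under 960 rpm orbital shaking (1 mm), fluorescence (ex 444, em 485 nm) read every 20 min. […] Peptide content before and after measured by reverse-phase HPLC against pramlintide standard.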

Row | Structure (SMILES) | ThT pH 4.0 lag time (physical stability in fibrillogenesis assay)
1 | CC[C@H](C)[C@H](NC(=O)[C@@H]1CCCN1C(=O)CNC(=O)[C@H](Cc1ccccc1)NC(=O)[C@H](CC(N)=O)NC(=O)[C@H](CC(N)=O)NC(=O)[C@H](CO)NC(=O)[C@H](CO)NC(=O)[C@H](Cc1c[nH]cn1)NC(=O)[C@H](CCCNC(=N)N)NC(=O)[C@H](CC(C)C)NC(=O)[C@H](Cc1ccccc1)NC(=O)[C@H](CCC(=O)O)NC(=O)[C@H](C)NC(=O)[C@H](CC(C)C)NC(=O)[C@H](CCCNC(=N)N)NC(=O)[C@H](CCC(N)=O)NC(=O)[C@@H](NC(=O)[C@H](C)NC(=O)[C@@H]1CSSC[C@H](NC(=O)[C@H](CCC(=O)O)NC(=O)[C@H](CCCNC(=N)N)NC(=O)[C@H](CCC(=O)O)NC(=O)CC[C@H](NC(=O)CCCCCCCCCCCCCCCCCCC(=O)O)C(=O)O)C(=O)N[C@@H](CC(N)=O)C(=O)N[C@@H]([C@@H](C)O)C(=O)N[C@@H](C)C(=O)N[C@@H]([C@@H](C)O)C(=O)N1)[C@@H](C)O)C(=O)N[C@@H](CC(C)C)C(=O)N1CCC[C@H]1C(=O)N1CCC[C@H]1C(=O)N[C@H](C(=O)N[C@@H](CC(N)=O)C(=O)N[C@H](C(=O)NCC(=O)N[C@@H](CO)C(=O)N[C@@H](CC(N)=O)C(=O)N[C@H](C(=O)N1CCC[C@H]1C(N)=O)[C@@H](C)O)C(C)C)[C@@H](C)O [Example 124, N-alpha-[(S)-4-Carboxy-4-(19-carboxynonadecanoylamino)butyryl]-Glu-Arg-[Glu1,Glu14,Arg17,Pro37]-pramlintide] ({C20 diacid-γGlu}-ERECNTATCATQRLAEFLRHSSNNFGPILPPTNVGSNTP-NH2; disulfide 4-9 (inferred); C-terminus assumed) | >45 h
2 | CC[C@H](C)[C@H](NC(=O)[C@@H]1CCCN1C(=O)CNC(=O)[C@H](Cc1ccccc1)NC(=O)[C@H](CC(N)=O)NC(=O)[C@H](CC(N)=O)NC(=O)[C@H](CO)NC(=O)[C@H](CO)NC(=O)[C@H](Cc1c[nH]cn1)NC(=O)[C@H](Cc1cnc[nH]1)NC(=O)[C@H](CC(C)C)NC(=O)[C@H](Cc1ccccc1)NC(=O)[C@H](CCC(=O)O)NC(=O)[C@H](C)NC(=O)[C@H](CC(C)C)NC(=O)[C@H](CCCNC(=N)N)NC(=O)[C@H](CCC(N)=O)NC(=O)[C@@H](NC(=O)[C@H](C)NC(=O)[C@@H]1CSSC[C@H](NC(=O)[C@H](CCCCN)NC(=O)CC[C@H](NC(=O)CCCCCCCCCCCCCCCCCCC(=O)O)C(=O)O)C(=O)N[C@@H](CC(N)=O)C(=O)N[C@@H]([C@@H](C)O)C(=O)N[C@@H](C)C(=O)N[C@@H]([C@@H](C)O)C(=O)N1)[C@@H](C)O)C(=O)N[C@@H](CC(C)C)C(=O)N1CCC[C@H]1C(=O)N1CCC[C@H]1C(=O)N[C@H](C(=O)N[C@@H](CC(N)=O)C(=O)N[C@H](C(=O)NCC(=O)N[C@@H](CO)C(=O)N[C@@H](CC(N)=O)C(=O)N[C@H](C(=O)N1CCC[C@H]1C(N)=O)[C@@H](C)O)C(C)C)[C@@H](C)O [Example 52, N-alpha-[(S)-4-Carboxy-4-(19-carboxynonadecanoylamino)butyryl]-[Glu14,His17,Pro37]-pramlintide] ({C20 diacid-γGlu}-KCNTATCATQRLAEFLHHSSNNFGPILPPTNVGSNTP-NH2; disulfide 2-7) | >45 h
3 | CC[C@H](C)[C@H](NC(=O)[C@@H]1CCCN1C(=O)CNC(=O)[C@H](Cc1ccccc1)NC(=O)[C@H](CO)NC(=O)[C@H](CO)NC(=O)[C@H](CO)NC(=O)[C@H](CO)NC(=O)[C@H](CCCNC(=N)N)NC(=O)[C@H](Cc1cnc[nH]1)NC(=O)[C@H](CC(C)C)NC(=O)[C@H](Cc1ccccc1)NC(=O)[C@H](CCC(=O)O)NC(=O)[C@H](C)NC(=O)[C@H](CC(C)C)NC(=O)[C@H](CCCNC(=N)N)NC(=O)[C@H](CCC(N)=O)NC(=O)[C@@H](NC(=O)[C@H](C)NC(=O)[C@@H]1CSSC[C@H](NC(=O)[C@H](Cc2cnc[nH]2)NC(=O)CC[C@H](NC(=O)CCCCCCCCCCCCCCCCCCC(=O)O)C(=O)O)C(=O)N[C@@H](CC(N)=O)C(=O)N[C@@H]([C@@H](C)O)C(=O)N[C@@H](C)C(=O)N[C@@H]([C@@H](C)O)C(=O)N1)[C@@H](C)O)C(=O)N[C@@H](CC(C)C)C(=O)N1CCC[C@H]1C(=O)N1CCC[C@H]1C(=O)N[C@H](C(=O)N[C@@H](CC(=O)O)C(=O)N[C@H](C(=O)NCC(=O)N[C@@H](CO)C(=O)N[C@@H](CC(=O)O)C(=O)N[C@H](C(=O)N[C@@H](Cc1ccc(O)cc1)C(N)=O)[C@@H](C)O)C(C)C)[C@@H](C)O [Example 9, N-alpha-[(S)-4-Carboxy-4-(19-carboxynonadecanoylamino)butyryl]-[His1,Glu14,His17,Arg18,Ser21,Ser22,Asp31,Asp35]-pramlintide] ({C20 diacid-γGlu}-HCNTATCATQRLAEFLHRSSSSFGPILPPTDVGSDTY-NH2; disulfide 2-7) | >45 h

Same assay, conditions: pH 4.0, ThT fibrillation assay

Row | Structure (SMILES) | ThT pH 4.0 lag time
4 | CC[C@H](C)[C@H](NC(=O)[C@@H]1CCCN1C(=O)CNC(=O)[C@H](Cc1ccccc1)NC(=O)[C@H](CC(N)=O)NC(=O)[C@H](CC(N)=O)NC(=O)[C@H](CO)NC(=O)[C@H](CO)NC(=O)[C@H](Cc1c[nH]cn1)NC(=O)[C@H](CCCNC(=N)N)NC(=O)[C@H](CC(C)C)NC(=O)[C@H](Cc1ccccc1)NC(=O)[C@H](CCC(=O)O)NC(=O)[C@H](C)NC(=O)[C@H](CC(C)C)NC(=O)[C@H](CCCNC(=N)N)NC(=O)[C@H](CCC(N)=O)NC(=O)[C@@H](NC(=O)[C@H](C)NC(=O)[C@@H]1CSSC[C@H](NC(=O)[C@H](CCC(=O)O)NC(=O)[C@H](CCCNC(=N)N)NC(=O)[C@H](CCC(=O)O)NC(=O)CC[C@H](NC(=O)CCCCCCCCCCCCCCCCCCC(=O)O)C(=O)O)C(=O)N[C@@H](CC(N)=O)C(=O)N[C@@H]([C@@H](C)O)C(=O)N[C@@H](C)C(=O)N[C@@H]([C@@H](C)O)C(=O)N1)[C@@H](C)O)C(=O)N[C@@H](CC(C)C)C(=O)N1CCC[C@H]1C(=O)N1CCC[C@H]1C(=O)N[C@H](C(=O)N[C@@H](CC(N)=O)C(=O)N[C@H](C(=O)NCC(=O)N[C@@H](CO)C(=O)N[C@@H](CC(N)=O)C(=O)N[C@H](C(=O)N1CCC[C@H]1C(N)=O)[C@@H](C)O)C(C)C)[C@@H](C)O [Example 124, N-alpha-[(S)-4-Carboxy-4-(19-carboxynonadecanoylamino)butyryl]-Glu-Arg-[Glu1,Glu14,Arg17,Pro37]-pramlintide] ({C20 diacid-γGlu}-ERECNTATCATQRLAEFLRHSSNNFGPILPPTNVGSNTP-NH2; disulfide 4-9 (inferred); C-terminus assumed) | >45 h
5 | CC[C@H](C)[C@H](NC(=O)[C@@H]1CCCN1C(=O)CNC(=O)[C@H](Cc1ccccc1)NC(=O)[C@H](CC(N)=O)NC(=O)[C@H](CC(N)=O)NC(=O)[C@H](CO)NC(=O)[C@H](CO)NC(=O)[C@H](Cc1c[nH]cn1)NC(=O)[C@H](Cc1c[nH]cn1)NC(=O)[C@H](CC(C)C)NC(=O)[C@H](Cc1ccccc1)NC(=O)[C@H](CCC(=O)O)NC(=O)[C@H](C)NC(=O)[C@H](CC(C)C)NC(=O)[C@H](CCCNC(=N)N)NC(=O)[C@H](CCC(N)=O)NC(=O)[C@@H](NC(=O)[C@H](C)NC(=O)[C@@H]1CSSC[C@H](NC(=O)[C@H](Cc2c[nH]cn2)NC(=O)[C@H](Cc2c[nH]cn2)NC(=O)[C@H](Cc2c[nH]cn2)NC(=O)CC[C@H](NC(=O)CCCCCCCCCCCCCCCCCCC(=O)O)C(=O)O)C(=O)N[C@@H](Cc2c[nH]cn2)C(=O)N[C@@H]([C@@H](C)O)C(=O)N[C@@H](C)C(=O)N[C@@H]([C@@H](C)O)C(=O)N1)[C@@H](C)O)C(=O)N[C@@H](CC(C)C)C(=O)N1CCC[C@H]1C(=O)N1CCC[C@H]1C(=O)N[C@H](C(=O)N[C@@H](CC(N)=O)C(=O)N[C@H](C(=O)NCC(=O)N[C@@H](CO)C(=O)N[C@@H](Cc1c[nH]cn1)C(=O)N[C@H](C(=O)N[C@@H](Cc1ccc(O)cc1)C(N)=O)[C@@H](C)O)C(C)C)[C@@H](C)O [Example 32, N-alpha-[(S)-4-Carboxy-4-(19-carboxynonadecanoylamino)butyryl]-His-His-[His1,His3,Glu14,His17,His35]-pramlintide] ({C20 diacid-γGlu}-HHHCHTATCATQRLAEFLHHSSNNFGPILPPTNVGSHTY-NH2; disulfide 4-9) | >45 h
6 | CC[C@H](C)[C@H](NC(=O)[C@@H]1CCCN1C(=O)CNC(=O)[C@H](Cc1ccccc1)NC(=O)[C@H](CC(N)=O)NC(=O)[C@H](CC(N)=O)NC(=O)[C@H](CO)NC(=O)[C@H](CO)NC(=O)[C@H](Cc1c[nH]cn1)NC(=O)[C@H](CCCNC(=N)N)NC(=O)[C@H](CC(C)C)NC(=O)[C@H](Cc1ccccc1)NC(=O)[C@H](CCC(=O)O)NC(=O)[C@H](C)NC(=O)[C@H](CC(C)C)NC(=O)[C@H](CCCNC(=N)N)NC(=O)[C@H](CCC(N)=O)NC(=O)[C@@H](NC(=O)[C@H](C)NC(=O)[C@@H]1CSSC[C@H](NC(=O)[C@H](CCCNC(=N)N)NC(=O)[C@H](CCC(=O)O)NC(=O)CC[C@H](NC(=O)CCCCCCCCCCCCCCCCCCC(=O)O)C(=O)O)C(=O)N[C@@H](CC(N)=O)C(=O)N[C@@H]([C@@H](C)O)C(=O)N[C@@H](C)C(=O)N[C@@H]([C@@H](C)O)C(=O)N1)[C@@H](C)O)C(=O)N[C@@H](CC(C)C)C(=O)N1CCC[C@H]1C(=O)N1CCC[C@H]1C(=O)N[C@H](C(=O)N[C@@H](CC(N)=O)C(=O)N[C@H](C(=O)NCC(=O)N[C@@H](CO)C(=O)N[C@@H](CC(N)=O)C(=O)N[C@H](C(=O)N1CCC[C@H]1C(N)=O)[C@@H](C)O)C(C)C)[C@@H](C)O [compound 156] ({C20 diacid-γGlu}-ERCNTATCATQRLAEFLRHSSNNFGPILPPTNVGSNTP-NH2; disulfide 3-8 (inferred)) | >45 h
7 | CC[C@H](C)[C@H](NC(=O)[C@@H]1CCCN1C(=O)CNC(=O)[C@H](Cc1ccccc1)NC(=O)[C@H](CC(N)=O)NC(=O)[C@H](CC(N)=O)NC(=O)[C@H](CO)NC(=O)[C@H](CO)NC(=O)[C@H](Cc1c[nH]cn1)NC(=O)[C@H](Cc1c[nH]cn1)NC(=O)[C@H](CC(C)C)NC(=O)[C@H](Cc1ccccc1)NC(=O)[C@H](CCC(=O)O)NC(=O)[C@H](C)NC(=O)[C@H](CC(C)C)NC(=O)[C@H](CCCNC(=N)N)NC(=O)[C@H](CCC(N)=O)NC(=O)[C@@H](NC(=O)[C@H](C)NC(=O)[C@@H]1CSSC[C@H](NC(=O)[C@H](Cc2c[nH]cn2)NC(=O)[C@H](Cc2c[nH]cn2)NC(=O)[C@H](Cc2c[nH]cn2)NC(=O)CC[C@H](NC(=O)CCCCCCCCCCCCCCCCCCC(=O)O)C(=O)O)C(=O)N[C@@H](CC(N)=O)C(=O)N[C@@H]([C@@H](C)O)C(=O)N[C@@H](C)C(=O)N[C@@H]([C@@H](C)O)C(=O)N1)[C@@H](C)O)C(=O)N[C@@H](CC(C)C)C(=O)N1CCC[C@H]1C(=O)N1CCC[C@H]1C(=O)N[C@H](C(=O)N[C@@H](CC(N)=O)C(=O)N[C@H](C(=O)NCC(=O)N[C@@H](CO)C(=O)N[C@@H](Cc1c[nH]cn1)C(=O)N[C@H](C(=O)N[C@@H](Cc1ccc(O)cc1)C(N)=O)[C@@H](C)O)C(C)C)[C@@H](C)O [Example 31, N-alpha-[(S)-4-Carboxy-4-(19-carboxynonadecanoylamino)butyryl]-His-His-[His1,Glu14,His17,His35]-pramlintide] ({C20 diacid-γGlu}-HHHCNTATCATQRLAEFLHHSSNNFGPILPPTNVGSHTY-NH2; disulfide 4-9) | >45 h
